These results are taken from US8017350B2, “Glimepiride- and insulin-induced glycosylphosphatidylinositol-specific phospholipase C regulation” (Sanofi-Aventis Deutschland GmbH, priority 2004, dated 2011).

Assay [1] has as its system pp59Lyn and IRS-1 in rat adipocytes. Kind of assay: Tyrosine phosphorylation of pp59Lyn and IRS-1. Type of assay: cell-based. The following applies: GPI-2350; IRS-1 tyrosine phosphorylation and glucose transport. The protocol: Polypeptides separated by SDS-PAGE were transferred to polyvinylidene difluoride membranes using the semidry procedure as described in “Müller, G. et al., (2001) Mol. Cell. Biol. 21: 4553-4567”. Washed membranes were incubated with anti-caveolin-1 (1:2000), anti-pp59^Lyn (1:1250), anti-aP (1:500), anti-5′-Nuc (1:750) and anti-IRS-1 (1:2000) antibodies for 4 h at 15° C. Washed membranes were incubated with horseradish peroxidase-coupled secondary goat anti-mouse (1:2000) or goat anti-rabbit IgG (1:4000) antibodies. Labeled proteins were visualized by enhanced chemiluminescence.
FIG. 7: Effect of GPI-2350 on the glimepiride/insulin-induced activation of signaling proteins. Isolated rat adipocytes were treated (5 min, 37° C.) without or with GPI-2350 (Panels A, 50 μM; Panels B, increasing conc.) and then incubated (120 min, 37° C.) in the absence or presence of insulin (10 nM) or glimepiride (20 μM). IRS-1 and pp59^Lyn were immunoprecipitated from the defatted postnuclear infranatant (see Materials and Methods) and solubilized combined hc/lcDIGs, respectively, and then immunoblotted for phosphotyrosine. […]

For assay [2], the system named is glucose transport, rat adipocytes. Description: Glucose transport in rat adipocytes. Format: cell-based. The following applies: GPI-2350 50 μM. As to the method: Glucose transport was determined as described in “Müller, G. et al., (1994) J. Cell Biol. 126: 1267-1276” by incubation of 10,000-20,000 washed adipocytes with 2-deoxy-D[2,6-^3H]glucose at 50 μM final conc. (0.33 μCi/ml) in 50-μl portions for 20 min at 37° C. in the absence or presence of 20 μM cytochalasin B.
Subsequently, we studied whether the differential effects of GPI-PLC inhibition on IRS-1 tyrosine phosphorylation in response to insulin and glimepiride is reflected in their metabolic activity in insulin target cells. For this, isolated rat adipocytes were pretreated with GPI-2350 prior to challenge with either stimulus, and then assayed for glucose transport and isoproterenol-induced lipolysis (FIG. 8). […] These differential effects of GPI-PLC inhibition were confirmed by analysis of the effect of GPI-2350 on the inhibition of isoproterenol-induced lipolysis by glimepiride and insulin when measured as release of NBD-FA instead of glycerol from rat adipocytes prelabeled with this fluorescent fatty acid derivative (FIG. 9).
Table 3: Isolated rat adipocytes were incubated in the presence of methyl-β-cyclodextrin (m-β-CD, 10 mM, 50 min), CBDP (300 μM, electroporation, followed by washing and subsequent incubation for 30 min), PIG41 (10 μM, 15 min), sodium orthovanadate (1 mM, 15 min), trypsin (10 μg/ml, 15 min followed by treatment with 0.5 M NaCl and subsequent washing) and N-ethylmaleimide (1 mM, 5 min followed by addition of DTT). After addition of GPI-2350 (50 μM final conc.) to one half of the adipocyte suspension and further incubation (60 min, 37° C.), portions of the cells were assayed for 5′-Nuc activity in the isolated IcDIGs. The increase in 5′-Nuc during the basal incubation was set at 100 arb. units. Other portions of the cells (after 15 min incubation) were assayed for glucose transport which was set at 100 arb. units for the basal incubation. Means+SD of at least 3 independent cell incubations with activity measurements in triplicate each are given.
FIG. 8: Effect of GPI-2350 on the glimepiride/insulin-induced metabolic activity. Isolated rat adipocytes were treated (5 min, 37° C.) without or with GPI-2350 (Panel A, 50 μM; Panel B, increasing conc.; Panel C, 5 μM, 50 μM) and then incubated (15 min, 37° C.) in the absence or presence of insulin (Ins, 10 nM) or glimepiride (Gli, 20 μM or increasing conc.) as indicated. The adipocytes were then assayed for glucose transport and isoproterenol-induced lipolysis. The activity is given relative to the absence of GPI-2350 in the control reaction (Panels A, basal) or in the insulin- and glimepiride-stimulated state (Panels B and C, set at 100). Means+SD of at least 5 independent cell incubations with activity measurements in triplicate each are given.

`CCCCCCCCCCCCP1(=O)O[C@@H]2[C@H](O)[C@@H](O)[C@H](O)[C@@H](O)[C@@H]2O1` (some centres unmarked) [GPI-2350, myo-inositol-1,2-cyclo-dodecylphosphonic acid]: the “effect on stimulation by other insulin-mimetic stimuli” value in assay [1] is “neither IRS-1 tyrosine phosphorylation nor glucose transport (Tab. 3) by these stimuli was affected significantly”. For the same molecule, the “glimepiride-stimulated glucose transport with GPI-2350” value in assay [2] is “to lower than control values”.
